In patent US9290535B2, “Uridine-based gadolinium complex and MRI contrast agent including the same” (Korea University Researchand Business Foundation, priority 2011, dated 2016):
“And” between values parts separate entries of the source, which are not always exact repeats. Equal entries are not always repeated.

Tests used:
[1] = clinical liver-specific contrast agents; cited from earlier work
[2] = Critical micelle concentration from 1/T1 versus concentration; format: physicochemical; details: FIG. 10
Experimental: Longitudinal and transverse relaxivities, r1 and r2, were measured at 20 MHz (0.47 T) and 60 MHz (1.41 T) at 36° C. on NMR (mq20 and mq60, Bruker, Germany) and animal MRI (Biospec 47/40, Bruker, Germany) systems. T1 and T2 relaxation times were measured with inversion recovery and spin-echo pulse sequences, respectively. The critical micelle concentration (cmc) of the complex LGd3 was determined by measuring the proton relaxation rate 1/T1 as a function of complex LGd3 concentration.

[3] = Stability against transmetallation by Zn2+ (time evolution of proton relaxation rate); format: physicochemical; details: for Relaxivity retained after transmetallation: 2.5 mM complex with 2.5 mM ZnCl2 in PBS, after 70 h; for y0 of fit y0+A×exp(−t/C1) of proton relaxation rate during transmetallation: Zn(II) ions, PBS, 20 MHz (0.47 T), 36° C., steady state in about 70 h
Experimental: The stability of the gadolinium complex against various biologically active metal ions is very important in in vivo applications. Among them, only Zn^2+ can displace significant amounts of the Gd^3+ ion as concentration of Zn^2+ in blood is relatively high (55-125 μM/L). The stability of the complexes LGd1-4 against transmetallation by Zn^2+ was studied employing the method of others.
The time evolution of the ^1H longitudinal relaxivity (R1) of a 2.5 mM gadolinium complex with 2.5 mM ZnCl2 in PBS solution was measured. Stability of the amphiphilic complex LGd2 of the present invention was greater than that of the non-aggregated complex LGd1 (FIG. 13). After 70 h, the relaxivities were retained 30, 50, 21, and 12% for LGd1-4, respectively.

[4] = biological target: T1, human serum albumin (HSA) (Homo sapiens, UniProt P02768); experiment: Interaction with human serum albumin (relaxivity with HSA, binding constant); details: 36° C.; for Effective interaction with HSA (R1/R1^0): 50 μM complex, HSA below 1.0 mM; for Relaxivity r1^a (with HSA): PBS solution with 0.65 mM HSA
T1 construct: purchased Sigma (Bornem, Belgium) A3782
Text: It is well known that non-covalent interaction of the contrast agent with human serum albumin (HSA) increases its circulation time in blood and slows down tubling rate, leading to greater contrast enhancement for blood vessel imaging. In this example, effective interaction between the newly synthesized contrast agents (CAs) and human serum albumin (HSA) were investigated.
Human serum albumin (HSA; Product No. A3782) was purchased from Sigma (Bornem, Belgium) and was used without further purification. HSA binding experiment was performed with 50 μM of the complexes LGd1-5 in PBS solution depending on the concentration of HSA from 0 to 4 mM at 20 MHz and 36° C.
The increment of R1/R1^0 with increasing aliphatic chain length is: LGd2>LGd3>LGd4>LGd5.
Furthermore, to know the non-covalent binding strength between HSA and the complex, a binding constant (Ka) of (3.34±0.28)×10^3 M^−1 for the complex LGd3 was determined using the theoretical equation reported in the reference (D. T. Schuhle, J. Schatz, S. Laurent, L. V. Elst, R. N. Muller, M. C. A. Stuart, J. A. Peters, Chem. Eur. J. 2009, 15, 3290). The relaxivity for the non-aggregate form of LGd3 (r1^f) was measured to be 18.5 mM^−1s^−1 (below CMC=50 μM; FIG. 10), while for adduct LGd3.HSA (r1^c), 41.0 mM^−1s^−1 at 36° C. and 20 MHz (0.47 T) in PBS solution. […] As a result, the complex LGd3 of the present invention could be retained in vivo for a longer time.

[5] = pH dependence of water 1H relaxivity; format: physicochemical
Experimental: The relaxivities of the non-aggregated complex LGd1 and the most aggregated complex LGd3 (FIG. 7, average diameter […]) were investigated at various pH values (3.5-11) at 60 MHz (1.41 T) and 36° C.
The pH dependence of water ^1H-NMR relaxivity r1 was obtained at 60 MHz and 36° C. The complexes LGd1 and LGd3 were dissolved in previously prepared stock solutions (StockOptions pH Screen, Hampton Research, USA) at pH 3.5-11.

[6] = Contrast-enhanced dynamic MRI in mice (CNR in liver and blood); format: in vivo, Balb/C mice
Experimental: The whole-body pharmacokinetics of T1 contrast agents can be measured by dynamic 2D or 3D MR imaging.
5-Week-old male Balb/C mice (n=3; OrientBio, Korea) were used for contrast-enhanced dynamic MRI. MRI was performed by using a 4.7 T MRI system (BioSpec 47/40; Bruker, Germany) with a quadrature birdcage RF coil (35 mm inner diameter) for signal transmission and reception.
Bolus of the contrast agents (0.1 mmol Gd/kg) was injected via tail vein. During MRI acquisition, the animals were anesthetized using 1-1.25% of inhalational isoflurane with O2:N2O (3:7) mixture.
To quantitatively measure signal intensity in region-of-interests (ROIs) as contrast-noise ratio (CNR), a reference of water sample (1 g/l CuSO4 in 8:2 of D2O:H2O) in a cylindrical tube (5 mm diameter) was used.
Dynamic 2D T1-weighted images were acquired using a spin-echo (SE) pulse sequence with the following parameters: TE/TR=10/400 ms, number of average=4, matrix size=256×256, slice thickness=1 mm, field of view=30×30 mm^2 (in axial slice) or 50×30 mm^2 (in coronal slice), and scan time=6 min 50 s).
Dynamic 3D T1-weighted images were acquired using a fast low angle shot gradient echo (FLASH) pulse sequence with parameters of TE/TR=2.4/7.5 ms, number of average=4, flip angle=30°, field of view=30×30×20 mm^3, matrix size=256×256×128, and scan time=12 min 17 s.

[7] = Relaxivity measurements (r1, r2) in PBS solution; format: physicochemical; details: for Relaxivity r1: PBS solution, 36° C.
Experimental: The relaxation efficiency of the newly synthesized amphiphilic MRI contrast agents according to the present invention was determined by measuring longitudinal relaxivity (r1) and transverse relaxivity (r2) at 20 MHZ (0.47 T) and 60 MHz (1.41 T) in phosphate buffered saline (PBS) solution at 36° C.

[8] = Dynamic light scattering (DLS) of micelles; format: physicochemical; details: for DLS PDI of micelles / DLS average size of micelles: FIGS. 6 to 9; for DLS average size of micelles: pH 7.4
[9] = clinically used commercial T1 contrast agents, comparison values; cited from earlier work

T1 sequence (P02768 25-609): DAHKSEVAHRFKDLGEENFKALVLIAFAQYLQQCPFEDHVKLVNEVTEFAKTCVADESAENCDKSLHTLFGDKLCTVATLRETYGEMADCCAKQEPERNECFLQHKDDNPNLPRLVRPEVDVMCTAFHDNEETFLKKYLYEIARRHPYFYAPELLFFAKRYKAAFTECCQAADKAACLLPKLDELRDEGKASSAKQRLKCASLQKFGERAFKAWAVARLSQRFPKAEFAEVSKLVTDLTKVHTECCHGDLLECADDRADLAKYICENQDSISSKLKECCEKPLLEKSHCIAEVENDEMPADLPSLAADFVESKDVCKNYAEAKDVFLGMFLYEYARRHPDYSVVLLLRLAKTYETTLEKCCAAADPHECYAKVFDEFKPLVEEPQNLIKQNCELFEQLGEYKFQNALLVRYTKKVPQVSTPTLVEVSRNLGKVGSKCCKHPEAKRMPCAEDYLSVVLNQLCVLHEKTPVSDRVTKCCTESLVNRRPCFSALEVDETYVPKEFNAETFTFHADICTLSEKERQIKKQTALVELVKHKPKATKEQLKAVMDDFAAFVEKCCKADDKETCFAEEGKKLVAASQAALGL

## O=C([O-])CN(CCN(CC(=O)[O-])CC(COP(=O)([O-])OC1CCC(c2ccccc2)(c2ccccc2)CC1)N(CC(=O)[O-])CC(=O)[O-])CC(=O)[O-].[Gd+3].[Na+].[Na+].[Na+] (stereo not drawn) [Vasovist®, diphenylcyclohexyl phosphodiester-Gd-DTPA]
[1]
  Hepatic excretion: 8%
  Renal excretion: 91%

## CCCCCCCCCC(=O)O[C@@H]1[C@H](OC(=O)CCCCCCCCC)[C@@H](CN(CCN(CC(=O)[O-])CC(=O)[O-])CCN(CC(=O)[O-])CC(=O)[O-])O[C@H]1n1ccc(=O)[nH]c1=O.[Gd+3] [LGd3]
[2]; 20 MHz, 36° C.
  Critical micelle concentration (CMC): about 0.05 mM
[2]
  Critical micelle concentration (CMC): 50 µM
[3]
  Relaxivity retained after transmetallation: 21%
  y0 of fit y0+A×exp(−t/C1) of proton relaxation rate during transmetallation: 0.21
[4]; 20 MHz
  Effective interaction with HSA (R1/R1^0): high
[4]; 20 MHz (0.47 T)
  Relaxivity r1^a (with HSA): 41.0 mM⁻¹ s⁻¹ and 41.00 mM⁻¹ s⁻¹
[4]; adduct LGd3.HSA, 20 MHz (0.47 T), PBS
  Relaxivity of adduct with HSA (r1^c): 41.0 mM⁻¹ s⁻¹
[4]; below CMC, 20 MHz (0.47 T), PBS
  Relaxivity of the non-aggregate form (r1^f): 18.5 mM⁻¹ s⁻¹
[4]; non-covalent binding, theoretical equation, 20 MHz, PBS
  Binding constant (Ka) with HSA: (3.34±0.28)×10^3 M^−1
[5]; 60 MHz, 36° C.
  Relaxivity variation Δr1 between pH 6 and 7.5: ~2.9
  Relaxivity variation Δr1 from pH 8 to pH 11: ~10.3
[5]; pH 8, 60 MHz (1.41 T), 36° C.
  Relaxivity at pH 8: about 24.5 mM^−1s^−1
[5]; pH 10.5
  Relaxivity at pH 10.5: about 17.3 mM^−1s^−1
[5]; pH 11, 60 MHz (1.41 T), 36° C.
  Relaxivity at pH 11: 14.2 mM^−1s^−1
[6]; 0.1 mmol Gd/kg i.v.
  Duration of hyperintense CNR in liver (delayed hepatobiliary phase): at least 11 h
[6]; 0.1 mmol Gd/kg i.v., 2D MR images
  Time of bright contrast enhancement in gall bladder after injection: 2 to 4 h
[6]; 0.1 mmol Gd/kg i.v., CNR in liver from 1.67 to 4.0
  Peak and plateau enhancement in liver parenchyma: about 240%
[6]; 0.1 mmol Gd/kg, 3D dynamic images
  Liver parenchyma enhancement versus same dose of Gd-DTPA-BMA: more intense and prolonged enhancement
[6]; 0.1 mmol Gd/kg, 11 h after injection
  CNR in liver at 11 h above pre-value: about 60%
[6]; 30 min after injection, 0.1 mmol Gd/kg
  T1-contrasted enhancement in liver parenchyma, caudal vena cava and kidney: markedly seen
[6]; 9 h after injection
  SI in liver compared with pre-injection value: still relatively high
[6]; after maximum at about 2 h post-injection
  Duration of plateau-like constant CNR in liver: about 2 h
[6]; i.v. injection, 4.7 T
  Peak CNR in liver: 4.0
[7]; 20 MHz (0.47 T)
  Relaxivity r1: 30.3 mM⁻¹ s⁻¹ and 30.30 mM⁻¹ s⁻¹
[7]; 60 MHz (1.41 T)
  Relaxivity r1: 23.4 mM⁻¹ s⁻¹ and 23.40 mM⁻¹ s⁻¹
[7]; PBS, 0.47 T and 1.41 T
  Relaxivity increase compared to Magnevist/Omniscan (Gd-DTPA, Gd-DTPA-BMA): 6 fold
[8]; FIG. 7
  Average diameter (FIG. 7) as printed in nm: 51.2 nm
[8]; FIG. 12, pH 10.5
  DLS PDI of micelles at alkaline pH: 2.01
[8]
  DLS PDI of micelles: 1.46
  DLS average size of micelles: 51.16 nm and 51.15 nm

## O=C([O-])CN(CCN(CCN(CC(=O)[O-])CC(=O)[O-])C[C@H]1O[C@@H](n2ccc(=O)[nH]c2=O)[C@H](O)[C@@H]1O)CC(=O)[O-].[Gd+3] [LGd1]
[3]
  Relaxivity retained after transmetallation: 30%
  y0 of fit y0+A×exp(−t/C1) of proton relaxation rate during transmetallation: 0.30
[4]; 20 MHz (0.47 T)
  Relaxivity r1^a (with HSA): 5.62 mM⁻¹ s⁻¹
[5]; pH 3.5-11, 60 MHz (1.41 T), 36° C.
  Relaxivity over the given pH range: 5.0±0.1 mM^−1s^−1 and 5.0±0.6 mM^−1s^−1
[5]; pH 11, 60 MHz, 36° C.
  Decrease of relaxivity at alkaline pH: about 10%
[7]; 20 MHz (0.47 T)
  Relaxivity r1: 5.10 mM⁻¹ s⁻¹
[7]; 60 MHz (1.41 T)
  Relaxivity r1: 4.17 mM⁻¹ s⁻¹

## CCCCCCCCCCCCCC(=O)O[C@@H]1[C@H](OC(=O)CCCCCCCCCCCCC)[C@@H](CN(CCN(CC(=O)[O-])CC(=O)[O-])CCN(CC(=O)[O-])CC(=O)[O-])O[C@H]1n1ccc(=O)[nH]c1=O.[Gd+3] [LGd5]
[4]; 20 MHz (0.47 T)
  Relaxivity r1^a (with HSA): 26.40 mM⁻¹ s⁻¹
[7]; 20 MHz (0.47 T)
  Relaxivity r1: 20.10 mM⁻¹ s⁻¹
[7]; 60 MHz (1.41 T)
  Relaxivity r1: 17.20 mM⁻¹ s⁻¹
[8]
  DLS PDI of micelles: 1.14
  DLS average size of micelles: 24.74 nm

## CCCCCCCC(=O)O[C@@H]1[C@H](OC(=O)CCCCCCC)[C@@H](CN(CCN(CC(=O)[O-])CC(=O)[O-])CCN(CC(=O)[O-])CC(=O)[O-])O[C@H]1n1ccc(=O)[nH]c1=O.[Gd+3] [LGd2]
[3]
  Relaxivity retained after transmetallation: 50%
  y0 of fit y0+A×exp(−t/C1) of proton relaxation rate during transmetallation: 0.50
[4]; 20 MHz
  Effective interaction with HSA (R1/R1^0): high
[4]; 20 MHz (0.47 T)
  Relaxivity r1^a (with HSA): 31.90 mM⁻¹ s⁻¹
[7]; 20 MHz (0.47 T)
  Relaxivity r1: 14.70 mM⁻¹ s⁻¹
[7]; 60 MHz (1.41 T)
  Relaxivity r1: 12.40 mM⁻¹ s⁻¹
[8]
  DLS PDI of micelles: 0.986
  DLS average size of micelles: 6.78 nm

## CNC[C@H](O)[C@@H](O)[C@H](O)[C@H](O)CO.CNC[C@H](O)[C@@H](O)[C@H](O)[C@H](O)CO.O=C([O-])CN(CCN(CC(=O)[O-])CC(=O)O)CCN(CC(=O)[O-])CC(=O)O.[Gd+3] [Magnevist ®, Gd-DTPA, reference compound]
[9]
  Relaxivity retained after transmetallation (commercial contrast agents): 50%
[7]; 20 MHz (0.47 T)
  Relaxivity r1: 4.70 mM⁻¹ s⁻¹
[7]; 60 MHz (1.41 T)
  Relaxivity r1: 3.81 mM⁻¹ s⁻¹

## CNC[C@H](O)[C@@H](O)[C@H](O)[C@H](O)CO.CNC[C@H](O)[C@@H](O)[C@H](O)[C@H](O)CO.O=C([O-])CN(CCN(CC(=O)[O-])CC(=O)O)CCN(CC(=O)O)C(COCc1ccccc1)C(=O)[O-].[Gd+3] (stereo not drawn) [Multihance®, Gd-BOPTA]
[1]
  Hepatic excretion: 4%
  Renal excretion: 96%

## CCOc1ccc(CC(CN(CCN(CC(=O)[O-])CC(=O)[O-])CC(=O)[O-])N(CC(=O)[O-])CC(=O)[O-])cc1.[Gd+3].[Na+].[Na+] (stereo not drawn) [Primovist®, Gd-EOB-DTPA]
[1]
  Hepatic excretion: 50%
  Renal excretion: 50%

## CCCCCCCCCCCC(=O)O[C@@H]1[C@H](OC(=O)CCCCCCCCCCC)[C@@H](CN(CCN(CC(=O)[O-])CC(=O)[O-])CCN(CC(=O)[O-])CC(=O)[O-])O[C@H]1n1ccc(=O)[nH]c1=O.[Gd+3] [LGd4]
[3]
  Relaxivity retained after transmetallation: 12%
  y0 of fit y0+A×exp(−t/C1) of proton relaxation rate during transmetallation: 0.12
[4]; 20 MHz (0.47 T)
  Relaxivity r1^a (with HSA): 38.50 mM⁻¹ s⁻¹
[7]; 20 MHz (0.47 T)
  Relaxivity r1: 27.10 mM⁻¹ s⁻¹
[7]; 60 MHz (1.41 T)
  Relaxivity r1: 16.50 mM⁻¹ s⁻¹
[8]
  DLS PDI of micelles: 1.12
  DLS average size of micelles: 50.16 nm
